Test results as given in patent US20250387400A1, “TYK2 INHIBITORS” (BIOGEN MA INC., priority 2022, published 2025).
Counter-ions that a name gives are not always drawn. Like-named read-outs stand apart in the source and are kept apart here.

What was measured:
Format in all cases: biochemical
[1] = biological target: T1, catalytic kinase (JH1) domain of human TYK2 (Homo sapiens, UniProt P29597); experiment: ADP-Glo kinase assay, TYK2 kinase domain
T1 construct: recombinantly generated catalytic kinase (also known as JH1) domain of human JAK1, JAK2, JAK3 and TYK2
T1 sequence (P29597 897-1176 limits assumed): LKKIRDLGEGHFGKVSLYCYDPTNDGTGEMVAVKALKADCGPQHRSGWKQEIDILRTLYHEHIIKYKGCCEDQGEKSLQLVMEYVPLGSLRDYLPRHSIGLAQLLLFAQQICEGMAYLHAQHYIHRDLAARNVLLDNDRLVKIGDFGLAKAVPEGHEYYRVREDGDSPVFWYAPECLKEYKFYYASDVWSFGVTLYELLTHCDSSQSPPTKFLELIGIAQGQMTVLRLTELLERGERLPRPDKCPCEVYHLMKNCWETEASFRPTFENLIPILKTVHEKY
Method: (§1) As summarized in Table 3 below, compounds of the disclosure were assessed for their ability to inhibit TYK2, JAK1, JAK2, and JAK3 activity.
(§2) The kinase activity of recombinantly generated catalytic kinase (also known as JH1) domain of human JAK1, JAK2, JAK3 and TYK2 were evaluated in a plate-based assay using the ADP-Glo™ Kinase Assay platform. […] The reactions proceed for 100 minutes and the catalytic activity is quantified by first depleting the unused ATP, converting the hydrolyzed ADP into ATP to generate luminescence in a luciferase reaction; which is the basis of the ADP-Glo platform. Compounds are tested at either 10 μM or 1 μM top concentration, 11 points of 3-fold dilution. The data is normalized and the percent activity versus log concentration of compound is fitted with a 4-parameter logistic model to generate a curve and an IC50 value.

[2] = biological target: T2, catalytic kinase (JH1) domain of human JAK2 (Homo sapiens, UniProt O60674); experiment: ADP-Glo kinase assay, JAK2 kinase domain
T2 construct: Catalytic activities of recombinant JAK2, JAK3 and TYK2 kinase domain
T2 sequence (O60674 849-1124 limits assumed): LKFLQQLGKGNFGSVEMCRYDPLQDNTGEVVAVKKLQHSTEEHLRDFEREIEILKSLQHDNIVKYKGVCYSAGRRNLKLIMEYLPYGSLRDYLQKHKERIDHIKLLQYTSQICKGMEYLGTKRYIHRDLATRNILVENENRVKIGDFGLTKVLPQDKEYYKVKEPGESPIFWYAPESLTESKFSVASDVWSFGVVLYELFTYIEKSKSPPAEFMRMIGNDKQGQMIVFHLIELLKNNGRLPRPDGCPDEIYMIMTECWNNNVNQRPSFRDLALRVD
Method: as §1, §2

[3] = biological target: T3, catalytic kinase (JH1) domain of human JAK1 (Homo sapiens, UniProt P23458); experiment: ADP-Glo kinase assay, JAK1 kinase domain
T3 construct: 4 nM of recombinant JAK1 kinase domain is used to phosphorylate
T3 sequence (P23458 875-1153 limits assumed): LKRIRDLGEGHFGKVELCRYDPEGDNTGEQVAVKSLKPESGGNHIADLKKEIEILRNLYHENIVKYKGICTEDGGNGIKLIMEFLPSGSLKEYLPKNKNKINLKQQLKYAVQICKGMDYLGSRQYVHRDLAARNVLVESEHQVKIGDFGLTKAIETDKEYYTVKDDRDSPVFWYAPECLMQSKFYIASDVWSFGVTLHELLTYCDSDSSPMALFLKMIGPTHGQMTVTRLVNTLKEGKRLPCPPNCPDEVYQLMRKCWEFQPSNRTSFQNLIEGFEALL
Method: as §1, §2

[4] = biological target: T4, catalytic kinase (JH1) domain of human JAK3 (Homo sapiens, UniProt P52333); experiment: ADP-Glo kinase assay, JAK3 kinase domain
T4 construct: Catalytic activities of recombinant JAK2, JAK3 and TYK2 kinase domain
T4 sequence (P52333 822-1111 limits assumed): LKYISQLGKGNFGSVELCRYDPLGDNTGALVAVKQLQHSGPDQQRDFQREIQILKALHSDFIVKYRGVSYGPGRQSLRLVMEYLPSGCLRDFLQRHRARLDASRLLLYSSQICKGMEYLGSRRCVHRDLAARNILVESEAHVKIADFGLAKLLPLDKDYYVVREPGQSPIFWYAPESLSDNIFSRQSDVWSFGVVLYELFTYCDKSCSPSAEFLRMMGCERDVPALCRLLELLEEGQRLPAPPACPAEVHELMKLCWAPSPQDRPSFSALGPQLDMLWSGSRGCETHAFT
Method: as §1, §2

[5] = 2 nM recombinant TYK2 kinase domain, 50 μM JAK3-974 peptide, 10 μM ATP, 100 minutes, read-out: TYK2 biochem IC50 (nM) Mean
[6] = 0.2 nM recombinant JAK2 kinase domain, 50 μM JAK3-974 peptide, 15 μM ATP, 100 minutes, read-out: JAK2 biochem IC50 (nM) Mean
[7] = 4 nM recombinant JAK1 kinase domain, 50 μM JAK3-342 peptide, 35 μM ATP, 100 minutes, read-out: JAK1 biochem IC50 (nM) Mean
[8] = 0.3 nM recombinant JAK3 kinase domain, 50 μM JAK3-974 peptide, 4 μM ATP, 100 minutes, read-out: JAK3 biochem IC50 (nM) Mean

| IC50 [1, 5] [nM] | IC50 [2, 6] [nM] | IC50 [3, 7] [nM] | IC50 [4, 8] [nM] | Compound | IC50 [1] [nM] | IC50 [2] [nM] | IC50 [3] [nM] | IC50 [4] [nM] |
| --- | --- | --- | --- | --- | --- | --- | --- | --- |
| 13.4 | 102 | 175 | 850 | Cn1cc(-c2nc3c(N4CC5CCC(C4)N5[C@H]4C[C@](C)(C#N)C4)ccnc3[nH]2)cn1 [Example 1, (1R,3r)-1-methyl-3-(3-(2-(1-methyl-1H-pyrazol-4-yl)-3H-imidazo[4,5-b]pyridin-7-yl)-3,8-diazabicyclo[3.2.1]octan-8-yl)cyclobutane-1-carbonitrile] | – | – | – | – |
| 460 | 6300 | > 10000 | > 10000 | Cn1cc(-c2cc3c(N4CC5CCC(C4)N5[C@H]4C[C@@H](O)C4)ccnn3c2)cn1 [Example 32, (1S,3s)-3-(3-(6-(1-methyl-1H-pyrazol-4-yl)pyrrolo[1,2-b]pyridazin-4-yl)-3,8-diazabicyclo[3.2.1]octan-8-yl)cyclobutan-1-ol] | – | – | – | – |
| 185 | 1100 | 1400 | 7300 | COCC[C@]1(C#N)C[C@H](N2C3CCC2CN(c2ccnn4cc(-c5cnn(C)c5)cc24)C3)C1 [Example 38, (1r,3r)-1-(2-methoxyethyl)-3-(3-(6-(1-methyl-1H-pyrazol-4-yl)pyrrolo[1,2-b]pyridazin-4-yl)-3,8-diazabicyclo[3.2.1]octan-8-yl)cyclobutane-1-carbonitrile] | – | – | – | – |
| 4.7 | 31.5 | 89 | 190 | Cn1cc(-c2cc3c(N4CC5CCC(C4)N5[C@H]4C[C@@](C)(C#N)C4)ccnn3c2)cn1 [Example 35, (1s,3s)-1-methyl-3-(3-(6-(1-methyl-1H-pyrazol-4-yl)pyrrolo[1,2-b]pyridazin-4-yl)-3,8-diazabicyclo[3.2.1]octan-8-yl)cyclobutane-1-carbonitrile] | – | – | – | – |
| 41.5 | 260 | 340 | 205 | Cn1cc(-c2cc3c(N4CC5CCC(C4)N5[C@H]4C[C@@H](C#N)C4)ncnc3[nH]2)cn1 [Example 64, (1S,3s)-3-(3-(6-(1-methyl-1H-pyrazol-4-yl)-7H-pyrrolo[2,3-d]pyrimidin-4-yl)-3,8-diazabicyclo[3.2.1]octan-8-yl)cyclobutane-1-carbonitrile] | – | – | – | – |
| 305 | 1150 | 1800 | > 10000 | CO[C@H]1C[C@@H](N2C3CCC2CN(c2ccnc4[nH]c(-c5cnn(C)c5)nc24)C3)C1 [Example 6, 7-(8-((1s,3S)-3-methoxycyclobutyl)-3,8-diazabicyclo[3.2.1]octan-3-yl)-2-(1-methyl-1H-pyrazol-4-yl)-3H-imidazo[4,5-b]pyridine] | – | – | – | – |
| 580 | 2300 | 2850 | > 10000 | CN1CC(N2C3CCC2CN(c2ccnc4[nH]c(-c5cnn(C)c5)nc24)C3)C1 [Example 12, 2-(1-methyl-1H-pyrazol-4-yl)-7-(8-(1-methylazetidin-3-yl)-3,8-diazabicyclo[3.2.1]octan-3-yl)-3H-imidazo[4,5-b]pyridine trifluoroacetate] | – | – | – | – |
| 40.5 | 115 | 68 | 785 | COc1cc(-c2cc3c(N4CC5CCC(C4)N5C4CC(C(F)F)C4)ccnc3[nH]2)ccn1 (centres unmarked) [Example 19, 4-(8-(3-(difluoromethyl)cyclobutyl)-3,8-diazabicyclo[3.2.1]octan-3-yl)-2-(2-methoxypyridin-4-yl)-1H-pyrrolo[2,3-b]pyridine] | – | – | – | – |
| 145 | 870 | 900 | 9700 | CO[C@H]1C[C@H](N2C3CCC2CN(c2ccnc4[nH]c(-c5cnn(C)c5)nc24)C3)C1 [Example 5, 7-(8-((1r,3R)-3-methoxycyclobutyl)-3,8-diazabicyclo[3.2.1]octan-3-yl)-2-(1-methyl-1H-pyrazol-4-yl)-3H-imidazo[4,5-b]pyridine] | – | – | – | – |
| 2.47 | 9.93 | 18.7 | 65.3 | Cn1cc(-c2nc3c(N4CC5CCC(C4)N5[C@H]4C[C@@H](C#N)C4)ccnc3[nH]2)cn1 [Example 4, (1S,3s)-3-(3-(2-(1-methyl-1H-pyrazol-4-yl)-3H-imidazo[4,5-b]pyridin-7-yl)-3,8-diazabicyclo[3.2.1]octan-8-yl)cyclobutane-1-carbonitrile] | – | – | – | – |
| 82 | 900 | 1700 | 3550 | Cn1cc(-c2cc3c(N4CC5CCC(C4)N5[C@H]4C[C@@H](CC#N)C4)ccnn3c2)cn1 [Example 44, 2-((1s,3s)-3-(3-(6-(1-methyl-1H-pyrazol-4-yl)pyrrolo[1,2-b]pyridazin-4-yl)-3,8-diazabicyclo[3.2.1]octan-8-yl)cyclobutyl)acetonitrile] | – | – | – | – |
| 425 | 7700 | > 10000 | > 10000 | Cn1cc(-c2cc3c(N4CC5CCC(C4)N5[C@H]4CC[C@@H]4O)ccnn3c2)cn1 (racemic) [Example 49, rac-(1S,2S)-2-(3-(6-(1-methyl-1H-pyrazol-4-yl)pyrrolo[1,2-b]pyridazin-4-yl)-3,8-diazabicyclo[3.2.1]octan-8-yl)cyclobutan-1-ol] | – | – | – | – |

The next lines start with the molecule.

| Compound | IC50 [1, 5] [nM] | IC50 [2, 6] [nM] | IC50 [3, 7] [nM] | IC50 [4, 8] [nM] | IC50 [1] [nM] | IC50 [2] [nM] | IC50 [3] [nM] | IC50 [4] [nM] |
| --- | --- | --- | --- | --- | --- | --- | --- | --- |
| Cn1cc(-c2cn3nccc(N4CC5CCC(C4)N5[C@H]4C[C@H](C#N)C4)c3n2)cn1 [Example 66, (1R,3r)-3-(3-(2-(1-methyl-1H-pyrazol-4-yl)imidazo[1,2-b]pyridazin-8-yl)-3,8-diazabicyclo[3.2.1]octan-8-yl)cyclobutane-1-carbonitrile] | – | – | – | – | 3.83 | 21.3 | 15.1 | 102 |
| COc1cc(-c2cc3c(N4CC5CCC(C4)N5C4CC(C#N)C4)ccnc3[nH]2)ccn1 (centres unmarked) [Example 13, 3-(3-(2-(2-methoxypyridin-4-yl)-1H-pyrrolo[2,3-b]pyridin-4-yl)-3,8-diazabicyclo[3.2.1]octan-8-yl)cyclobutane-1-carbonitrile] | – | – | – | – | 4.05 | 14 | 7.9 | 82 |
| Cn1cc(-c2nc3c(N4CC5CCC(C4)N5C4COC4)ccnc3[nH]2)cn1 [Example 9, 2-(1-methyl-1H-pyrazol-4-yl)-7-(8-(oxetan-3-yl)-3,8-diazabicyclo[3.2.1]octan-3-yl)-3H-imidazo[4,5-b]pyridine] | – | – | – | – | 42.5 | 220 | 275 | > 1000 |
| Cc1cc(-c2cc3c(N4CC5CCC(C4)N5[C@H]4C[C@H](C#N)C4)ccnn3c2)on1 [Example 58, (1R,3r)-3-(3-(6-(3-methylisoxazol-5-yl)pyrrolo[1,2-b]pyridazin-4-yl)-3,8-diazabicyclo[3.2.1]octan-8-yl)cyclobutane-1-carbonitrile] | – | – | – | – | 40.5 | 385 | 795 | 3450 |
| Cn1cc(-c2cn3nccc(N4CC5CCC(C4)N5[C@H]4C[C@@H](C#N)C4)c3n2)cn1 [Example 65, (1S,3s)-3-(3-(2-(1-methyl-1H-pyrazol-4-yl)imidazo[1,2-b]pyridazin-8-yl)-3,8-diazabicyclo[3.2.1]octan-8-yl)cyclobutane-1-carbonitrile] | – | – | – | – | 70.7 | 293 | 227 | 1650 |
| Cn1cc(-c2cc3c(N4CC5CCC(C4)N5C4CC(O)(C(F)(F)F)C4)ccnn3c2)cn1 (centres unmarked) [Example 22, 3-(3-(6-(1-methyl-1H-pyrazol-4-yl)pyrrolo[1,2-b]pyridazin-4-yl)-3,8-diazabicyclo[3.2.1]octan-8-yl)-1-(trifluoromethyl)cyclobutan-1-ol] | 305 | 1200 | 5200 | > 10000 | – | – | – | – |
| Cn1cc(-c2nc3c(N4CC5CCC(C4)N5[C@H]4C[C@@](C)(C#N)C4)ccnc3[nH]2)cn1 [Example 2, (1S,3s)-1-methyl-3-(3-(2-(1-methyl-1H-pyrazol-4-yl)-3H-imidazo[4,5-b]pyridin-7-yl)-3,8-diazabicyclo[3.2.1]octan-8-yl)cyclobutane-1-carbonitrile] | 1.2 | 9 | 14.7 | 68 | – | – | – | – |
| Cn1cc(-c2cc3c(N4CC5CCC(C4)N5C4CCC4)ccnn3c2)cn1 [Example 26, 4-(8-cyclobutyl-3,8-diazabicyclo[3.2.1]octan-3-y1)-6-(1-methyl-1H-pyrazol-4-yl)pyrrolo[1,2-b]pyridazine] | – | – | – | – | 195 | 3300 | 6100 | > 10000 |
